This note sets out measurements from article PMC10388301, “Exploring the Anticancer Activity of Tamoxifen-Based Metal Complexes Targeting Mitochondria” (Journal of Medicinal Chemistry, 2023).

The target in this data set is T1, thioredoxin reductase 1 (TrxR1, cytosolic) (Rattus norvegicus, UniProt O89049).
T1 construct: gene Txnrd1; highly purified enzyme from rat liver
T1 sequence (O89049 1-499): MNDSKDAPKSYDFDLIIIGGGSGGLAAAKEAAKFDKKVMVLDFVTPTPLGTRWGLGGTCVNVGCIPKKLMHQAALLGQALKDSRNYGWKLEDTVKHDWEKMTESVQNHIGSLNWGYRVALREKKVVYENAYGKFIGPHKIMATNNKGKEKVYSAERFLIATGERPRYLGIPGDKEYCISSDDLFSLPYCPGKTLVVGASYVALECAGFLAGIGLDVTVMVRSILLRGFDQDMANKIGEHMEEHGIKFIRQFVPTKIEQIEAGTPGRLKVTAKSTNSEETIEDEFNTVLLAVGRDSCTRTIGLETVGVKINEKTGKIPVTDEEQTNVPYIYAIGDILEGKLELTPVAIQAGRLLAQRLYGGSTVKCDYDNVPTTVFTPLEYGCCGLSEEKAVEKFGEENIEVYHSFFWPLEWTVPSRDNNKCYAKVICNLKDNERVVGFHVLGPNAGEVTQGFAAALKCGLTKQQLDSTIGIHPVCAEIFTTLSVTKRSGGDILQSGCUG
The experiment in a line: DTNB reduction assay on purified rat liver TrxR1; BIAM labelling of Sec/Cys residues. The format is biochemical.

Take `CCC(=C(c1ccc(OC)cc1)c1ccc(OC)cc1)c1cc[n+]2c(c1)-c1cccc[n+]1[Au-]2([Cl])[Cl].F[P-](F)(F)(F)(F)F` [AuTAML]: the “DTNB reduction assay on purified rat liver TrxR1; BIAM labelling of Sec/Cys resi” value is given as “a strong inhibition of TrxR1 activity was observed at low nanomolar concentrations of the Au(III) complex”.
